What all share (type): in vivo
Experiment [1] deals with Colla2^oim mouse model of type 1(+/−) OI. Kind of experiment: Fracture callus mineralization by MicroCT after stabilized midshaft femur fracture (osteotomy), type 1 OI mice. The protocol: (§1) After reaching skeletal maturity, 12 weeks old female mice underwent a stabilized midshaft femur fracture model via an osteotomy. Type 1 and Type 3 OI mice were treated twice a week for 5 weeks and 6 weeks respectively post fracture. Fracture callus mineralization was evaluated via quantification of high resolution MicroCT(scanco) images of the fracture callus.
After reaching skeletal maturity, 12 weeks old mice underwent a stabilized midshaft femur fracture model via an osteotomy. Type 1 OI mice were treated daily subcutaneously for 5 weeks post fracture. Fracture callus mineralization was evaluated via quantification of high resolution MicroCT(scanco) images of the fracture callus. In some instances, mice were dosed (daily) with 38 nmol/kg/d of Compound 4, Compound 3, or PBS vehicle control.
After reaching skeletal maturity 12 weeks old mice underwent a stabilized midshaft femur fracture model via an osteotomy. Type 1 OI mice were treated daily subcutaneously for 5 weeks post fracture. Fracture callus mineralization was evaluated via quantification of high resolution MicroCT(scanco) images of the fracture callus.
(§2) In vivo experiments were conducted in heterozygous and homozygous Colla2^oim (Type 1 OI (+/−) and Type 3 OI (−/−)) mice of both genders. After reaching skeletal maturity, 12 weeks old female and/or male mice underwent a stabilized midshaft femur fracture model via an osteotomy. OI mice were subcutaneously treated (with saline control or a compound provided herein, such as Ab46-D-Glu20) twice a week 5 or 6 weeks post fracture. Following a 5-week study in heterozygous mice and 6-week in homozygous mice, fracture callus mineralization/densities were measured using quantification of high resolution MicroCT(scanco) images of the fracture callus.

Experiment [2] shares this test system. The experiment is described as follows: 4-point bend to failure of the fractured femurs, 12 week old type 1 OI mice. To be noted: for increase in max load it takes a bone to fracture as compared to control: fractured femurs, daily subcutaneously 38 nmol/kg/d for 5 weeks, Type 1 OI mice treated (FIG. 18). The protocol:
(§3) FIGS. 13 and 14 show the impact of treatment with Compound 1 on bone fracture stiffness in a Colla2^oim mouse model of type 3(−/−) and type 1(−/+) osteogenesis Imperfecta. After reaching skeletal maturity, 12 weeks old female mice underwent a stabilized midshaft femur fracture model via an osteotomy and type 1 and Type 3 OI mice were treated twice a week for 5 and 6 weeks respectively post fracture. Fracture strength was evaluated via 4-point bend to failure of the fractured femurs. Modulus evaluates the stiffness of the femur during the biomechanical evaluation. A low stiffness is indicative of brittleness that leads to leads to future fractures. The improvement in stiffness that occurred in the fracture callus are indicative of a healthier bone that is less brittle and will be less likely to fracture in the future. In some instances, low bone stiffness is indicative of brittleness in the bone, such as being associated with higher risk of fracture. In some instances, higher bone stiffness is indicative of healthier bone, such as bone that is less brittle and less prone to fracture. In some instances, the majority of the compound localized into the fracture callus (e.g., due to the large amounts of exposed hydroxyapatite at the fracture site and that DE20 can bind to hydroxyapatite via chelation of the calcium component). In some instances, the elevated sites of resorption throughout the OI type 3 skeleton also had some moderate accumulation (e.g., which was responsible for the non-fracture skeletal improvements observed in FIGS. 13 and 14).
After reaching skeletal maturity, 12 weeks old female mice underwent a stabilized midshaft femur fracture model via an osteotomy. Type 1 and Type 3 OI mice were treated twice a week for 5 weeks and 6 weeks respectively post fracture. Fracture strength was evaluated via 4-point bend to failure of the fractured femurs. The contralateral untreated femurs are presented here to show the restoration to previous non-fracture strength during treatment. […] Further, Compound 1 increases the max load (in Newtons) it takes a bone to fracture in mice with Type 1 OI by approximately 70% (as compared to bone with saline). […]

Experiment [3] concerns Colla2^oim mouse model of type 3(−/−) OI. The experiment is described as follows: 4-point bend to failure of the fractured femurs, type 3 OI mice. The protocol: After reaching skeletal maturity, 12 weeks old female mice underwent a stabilized midshaft femur fracture model via an osteotomy. Type 3 OI mice were treated twice a week for 6 weeks post fracture. Fracture strength was evaluated via 4-point bend to failure of the fractured femurs. The max load evaluates the max load the femur withstood prior to fracture in the biomechanical evaluation. The contralateral untreated femurs are presented here to show the restoration to previous non-fracture strength during treatment.
After reaching skeletal maturity, 12 weeks old female mice underwent a stabilized midshaft femur fracture model via an osteotomy. Type 3 OI mice were treated twice a week for 6 weeks post fracture. Fracture strength was evaluated via 4-point bend to failure of the fractured femurs. Work to fracture evaluates the total amount of energy the femur adsorbed prior to fracture in the biomechanical evaluation. The contralateral untreated femurs are presented here to show the restoration to previous non-fracture strength during treatment.
as §3
After reaching skeletal maturity, 12 weeks old female mice underwent a stabilized midshaft femur fracture model via an osteotomy. Type 1 and Type 3 OI mice were treated twice a week for 5 weeks and 6 weeks respectively post fracture. Fracture strength was evaluated via 4-point bend to failure of the fractured femurs. The contralateral untreated femurs are presented here to show the restoration to previous non-fracture strength during treatment. […] Further, Compound 1 increases the max load (in Newtons) it takes a bone to fracture in mice with Type 1 OI by approximately 70% (as compared to bone with saline).

In experiment [4] the test system is Colla2^oim mouse model of type 1(+/−) OI. Kind of experiment: 4-point bend to failure of the fractured femurs, 6 week old pediatric type 1 OI mice. To be noted: 6 week old pediatric mice. The protocol:
In some instances, OI affects children from birth and many of the fractures in an individual's life with OI occurring during adolescence. In some embodiments, the individual has pediatric OI. FIGS. 7 and 8 show the impact of treatment with Compound 1 on bone fracture strength in a Colla2^oim mouse model of type 1(+/−) OI. 6 week old pediatric Mice underwent a stabilized midshaft femur fracture model via an osteotomy. Type 1 OI mice were treated twice a week for 4 weeks post fracture. Fracture strength was evaluated via 4-point bend to failure of the fractured femurs. The max load (FIG. 7) evaluates the max load the femur withstood prior to fracture in the biomechanical evaluation. Work to fracture (FIG. 8) evaluates the total amount of energy the femur adsorbed prior to fracture in the biomechanical evaluation.

For experiment [5] the test system is unchanged. Kind of experiment: 4-point bend to failure of the non-fractured contralateral femurs, type 1 OI mice. The protocol:
FIGS. 11 and 12 show the impact of treatment with Compound 1 on bone strength in a Colla2^0im mouse model of type!(+/−) OI. 12 week old female mice underwent a stabilized midshaft femur fracture model via an osteotomy. Type 1 OI mice were treated twice a week for 5 weeks post fracture. Bone strength was evaluated via 4-point bend to failure of the non-fractured contralateral femurs. The max load (FIG. 11) evaluates the max load the femur withstood prior to fracture in the biomechanical evaluation. Work to fracture (FIG. 12) evaluates the total amount of energy the femur adsorbed prior to fracture in the biomechanical evaluation. Bone targeted anabolic treatment dramatically improves bone strength in the contralateral femurs.
FIGS. 19 and 20 show the impact of treatment with Compound 3 on bone strength in a Colla2^oim mouse model of type 1(+/−) OI. 12 week old female mice underwent a stabilized midshaft femur fracture model via an osteotomy. Type 1 OI mice were treated daily subcutaneously for 5 weeks post fracture. Bone strength was evaluated via 4-point bend to failure of the non-fractured contralateral femurs. The max load (FIG. 19) evaluates the max load the femur withstood prior to fracture in the biomechanical evaluation. Work to fracture (FIG. 20) evaluates the total amount of energy the femur adsorbed prior to fracture in the biomechanical evaluation. Bone targeted anabolic treatment dramatically improves bone strength in the contralateral femurs.

For experiment [6], the system named is Colla2^oim mouse model of type 3(−/−) OI. The experiment is described as follows: Fracture callus mineralization by MicroCT after stabilized midshaft femur fracture (osteotomy), type 3 OI mice. On the procedure: In some instances, ability of an anabolic linked to a hydroxyapatite ligand to accelerate the repair of fractures in a Type 3 OI disease state was analyzed. Type 3 is the most severe non-lethal form of OI and experiences the most fractures in the human population. In some instances, Type 3 was modeled in a Colla2oim (−/−) mouse (e.g., which is a well-established model of OI Type 3), such as described elsewhere herein (e.g., see the examples). In some instances, the compound is distally administered and accumulates locally at a fracture site.
After reaching skeletal maturity, 12 weeks old female mice underwent a stabilized midshaft femur fracture model via an osteotomy. Type 3 OI mice were treated twice a week 6 weeks post fracture. Fracture callus mineralization was evaluated via quantification of high resolution MicroCT(scanco) images of the fracture callus.
as §1, §2

Where [7] appears, read: 12 weeks old mice, daily subcutaneously 38 nmol/kg/d for 5 weeks (FIG. 17).

Some results are limits rather than exact numbers.

On to “eeeeeeeeee(AEEA)4 DLTIDDSYWYRI (EEEEEEEEEEXDLTIDDSYWYRI; D-Glu targeting ligand, 4 AEEA spacer; SITE 1..10 D-glutamic acid; SITE 11 2,2-amino ethoxy ethoxy acetic acid; REPEAT 11 repeated 4 times) [Compound 4, Ln2_P3 motif with N-terminally-attached 4-mini-PEG spacer and D-glutamic acid targeting ligand]”, for which the “improved fracture callus mineralization as compared to the saline control” value in experiment [1] (setting [7]) is recorded as “approximately 200%”. In addition, in experiment [2], the “increase in max load it takes a bone to fracture as compared to control” value was “approximately 200%”.
In the case of “AVSEHQLLHDKGKSIQDLRRRELLEKLLxKLHTAEIRATSEVSPNSeeeeeeeeeeeeeeeeeeee [Compound 1]”, the “improved fracture callus mineralization as compared to the saline control” value in experiment [1] (12 weeks old female mice, treated twice a week 5 weeks post fracture (FIG. 4)) is “approximately 50%”; in experiment [6] (Type 3 OI, 12 weeks old female mice, treated twice a week 6 weeks post fracture (FIG. 1, FIG. 4)), “approximately 100%”. Also, in experiment [3] (Colla2oim mouse model, mechanical testing), the “force required to refracture bone” value was “dramatically higher force”. Moreover, the “more stiff (modulus) than fractured bone of control mice” value is “approximately 100%” in experiment [3] (Type 3 OI, fractured bone, twice a week 6 weeks (FIG. 13)) and “approximately 60%” in experiment [2] (Type 1 OI, fractured bone, twice a week 5 weeks (FIG. 14)). For the same substance, in experiment [3] (Type 3 OI, fractured femur, twice a week 6 weeks (FIG. 2, FIG. 5)), the “increase in max load it takes a bone to fracture as compared to saline bone” value was “approximately 300%”. Further, in experiment [3] (Type 3 OI, fractured femur, twice a week 6 weeks (FIG. 3)), the “increase in work to fracture as compared to bone repaired with saline” value was “approximately 150%”. In addition, the “more stiff (modulus) than non-fractured bone of control mice” value in experiment [3] (Type 3 OI, treated fractured bone vs non-fractured control bone (FIG. 13)) is “approximately 50%”. Besides, the “increase in work to fracture as compared to non-fractured bone” value in experiment [3] (Type 3 OI, treated fractured femur vs non-fractured bone (FIG. 3)) is reported as “approximately 70%”. Further, the “more max load to fracture than fractured bone in control mice” value in experiment [2] (Type 1 OI, 12 week old female mice, twice a week 5 weeks (FIG. 10)) is given as 80%; in experiment [2] (Type 1 OI, 12 week old male mice, twice a week 5 weeks (FIG. 9)), “approximately 70%”. Moreover, the “increase in max load it takes a bone to fracture as compared to bone with saline” value in experiment [2] (Type 1 OI, 12 weeks old female mice, twice a week 5 weeks (FIG. 5)) is recorded as “approximately 70%”. Also, the “differential response between sexes (fracture strength)” value in experiment [2] (Type 1 OI, male vs female mice, twice a week 5 weeks (FIGS. 9, 10)) is “No differential response between sexes”. The “more stiff (modulus) than unfractured bone of control mice” value in experiment [2] (Type 1 OI, treated fractured bone vs unfractured control bone (FIG. 14)) is “approximately 10%”. Also, in experiment [4] (twice a week 4 weeks (FIG. 7)), the “higher max load to fracture than saline control” value is “approximately 160%”. The “higher work to fracture than saline control” value in experiment [4] (twice a week 4 weeks (FIG. 8)) is given as “approximately 80%”. Further, the “more max load to fracture, non-fractured bone vs control mice” value in experiment [5] (non-fractured contralateral femurs, twice a week 5 weeks (FIG. 11)) was “approximately 30%”. Moreover, in experiment [5] (non-fractured contralateral femurs, twice a week 5 weeks (FIG. 12)), the “higher work to fracture, non-fractured bone vs control mice” value is “approximately 40%”. In addition, in experiment [6] (Colla2oim mouse model), the “radiographic healing over the control” value is recorded as “significant improvement”. For the same substance, the “median microCT images of fractured bones vs saline control” value in experiment [6] (fractured bones of FIGS. 4 and 5 (Type 1 and Type 3 OI), composite of 20 microCT slices (FIG. 6)) was “healthier and denser bone”. Moreover, the “increase in bone volume fraction over the saline groups” value in experiment [6] (mice administered compound vs saline groups) is over 85%.
Take “AVSEHQLLHDKGKSIQDLIUGTFFLHHLIAEIHTAEnLATSEVSPNSeeeeeeeeeeeeeeeeeeee [Compound 3]”: in experiment [1] (setting [7]), the “improved fracture callus mineralization as compared to the saline control” value is reported as “approximately 300%”. In experiment [2], the “increase in max load it takes a bone to fracture as compared to control” value is given as “approximately 100%”. Also, the “more max load to fracture than bone in control mice” value in experiment [5] (contralateral femurs, daily subcutaneously 5 weeks (FIG. 19)) is “approximately 10%”. Moreover, the “higher work to fracture, non-fractured bone vs control mice” value in experiment [5] (non-fractured contralateral femurs, daily subcutaneously 5 weeks (FIG. 20)) is reported as “approximately 40%”.

For the origin of these results see patent US20250295725A1, “BONE TARGETED TREATMENT IN OSTEOGENESIS IMPERFECTA” (PURDUE RESEARCH FOUNDATION, priority 2022, published 2025).
